Tests used:
Experiment in all cases: relative viability (nuclei count vs DMSO), 5 days (fraction); higher = more cells survive
PC-3 [JPC-3] = tested on: PC-3 [JPC-3]
Summary of the method: (§1)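 Each reported value is a median over duplicate plates. It expresses relative viability: treated-well nuclei count divided by vehicle-well nuclei count. Lung cancer cell lines in 1536-well plates were dosed by pin tool a day after seeding, alone with one drug or with a fixed anchor-drug dose plus five library-drug doses (not always all listed) in √10 steps, and nuclei were counted after 5 days.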

LU99A = tested on: LU99A
Summary of the method: as §1

NCI-H2126 = tested on: NCI-H2126
Summary of the method: as §1

NCI-H520 = tested on: NCI-H520
Summary of the method: as §1

201T = tested on: 201T
Summary of the method: as §1

SW 1573 = tested on: SW 1573
Summary of the method: as §1

NCI-H1437 = tested on: NCI-H1437
Summary of the method: as §1

NCI-H2347 = tested on: NCI-H2347
Summary of the method: as §1

UMC-11 = tested on: UMC-11
Summary of the method: as §1

NCI-H358 = tested on: NCI-H358
Summary of the method: as §1

NCI-H1355 = tested on: NCI-H1355
Summary of the method: as §1

NCI-H2009 = tested on: NCI-H2009
Summary of the method: as §1

NCI-H2405 = tested on: NCI-H2405
Summary of the method: as §1

NCI-H838 = tested on: NCI-H838
Summary of the method: as §1

HCC-366 = tested on: HCC-366
Summary of the method: as §1

NCI-H1734 = tested on: NCI-H1734
Summary of the method: as §1

BEN = tested on: BEN
Summary of the method: as §1

HARA = tested on: HARA
Summary of the method: as §1

HCC-78 = tested on: HCC-78
Summary of the method: as §1

HCC-44 = tested on: HCC-44
Summary of the method: as §1

NCI-H441 = tested on: NCI-H441
Summary of the method: as §1

## COCC1(CO)C(=O)C2CCN1CC2 (configuration not stated) [PRIMA-1MET] + Nc1nc2[nH]cc(CCc3ccc(C(=O)N[C@@H](CCC(=O)O)C(=O)O)cc3)c2c(=O)[nH]1 [Pemetrexed] (partner 0.2 µM)
PC-3 [JPC-3]; first compound 0.2 µM
  relative viability: 1.06
PC-3 [JPC-3]; first compound 0.6325 µM
  relative viability: 0.975
PC-3 [JPC-3]; first compound 2 µM
  relative viability: 1.04
PC-3 [JPC-3]; first compound 6.325 µM
  relative viability: 1.14
PC-3 [JPC-3]; first compound 20 µM
  relative viability: 1.04
LU99A; first compound 0.2 µM
  relative viability: 0.191
LU99A; first compound 0.6325 µM
  relative viability: 0.161
LU99A; first compound 2 µM
  relative viability: 0.201
LU99A; first compound 6.325 µM
  relative viability: 0.179
LU99A; first compound 20 µM
  relative viability: 0.187
NCI-H2126; first compound 0.2 µM
  relative viability: 0.657
NCI-H2126; first compound 0.6325 µM
  relative viability: 0.614
NCI-H2126; first compound 2 µM
  relative viability: 0.609
NCI-H2126; first compound 6.325 µM
  relative viability: 0.699
NCI-H2126; first compound 20 µM
  relative viability: 0.67
NCI-H520; first compound 0.2 µM
  relative viability: 0.726
NCI-H520; first compound 2 µM
  relative viability: 0.681
NCI-H520; first compound 6.325 µM
  relative viability: 0.647
NCI-H520; first compound 20 µM
  relative viability: 0.421
201T; first compound 0.2 µM
  relative viability: 0.302
201T; first compound 0.6325 µM
  relative viability: 0.339
201T; first compound 2 µM
  relative viability: 0.332
201T; first compound 6.325 µM
  relative viability: 0.346
201T; first compound 20 µM
  relative viability: 0.328
SW 1573; first compound 0.2 µM
  relative viability: 0.882
SW 1573; first compound 0.6325 µM
  relative viability: 0.89
SW 1573; first compound 2 µM
  relative viability: 0.752
SW 1573; first compound 6.325 µM
  relative viability: 0.0377
SW 1573; first compound 20 µM
  relative viability: 0.0278
NCI-H1437; first compound 0.2 µM
  relative viability: 0.32
NCI-H1437; first compound 0.6325 µM
  relative viability: 0.284
NCI-H1437; first compound 2 µM
  relative viability: 0.308
NCI-H1437; first compound 6.325 µM
  relative viability: 0.298
NCI-H1437; first compound 20 µM
  relative viability: 0.283
NCI-H2347; first compound 0.2 µM
  relative viability: 0.441
NCI-H2347; first compound 0.6325 µM
  relative viability: 0.455
NCI-H2347; first compound 2 µM
  relative viability: 0.335
NCI-H2347; first compound 6.325 µM
  relative viability: 0.407
NCI-H2347; first compound 20 µM
  relative viability: 0.398
UMC-11; first compound 0.2 µM
  relative viability: 0.866
UMC-11; first compound 0.6325 µM
  relative viability: 0.693
UMC-11; first compound 2 µM
  relative viability: 0.836
UMC-11; first compound 6.325 µM
  relative viability: 0.768
UMC-11; first compound 20 µM
  relative viability: 0.801
NCI-H358; first compound 0.2 µM
  relative viability: 0.175
NCI-H358; first compound 0.6325 µM
  relative viability: 0.159
NCI-H358; first compound 2 µM
  relative viability: 0.165
NCI-H358; first compound 6.325 µM
  relative viability: 0.164
NCI-H358; first compound 20 µM
  relative viability: 0.198
NCI-H1355; first compound 0.2 µM
  relative viability: 1.02
NCI-H1355; first compound 0.6325 µM
  relative viability: 0.985
NCI-H1355; first compound 2 µM
  relative viability: 1
NCI-H1355; first compound 6.325 µM
  relative viability: 1.01
NCI-H1355; first compound 20 µM
  relative viability: 1.04
NCI-H2009; first compound 0.2 µM
  relative viability: 0.973
NCI-H2009; first compound 0.6325 µM
  relative viability: 1.03
NCI-H2009; first compound 2 µM
  relative viability: 1.03
NCI-H2009; first compound 6.325 µM
  relative viability: 0.96
NCI-H2009; first compound 20 µM
  relative viability: 0.435
NCI-H2405; first compound 0.2 µM
  relative viability: 1.01
NCI-H2405; first compound 0.6325 µM
  relative viability: 0.986
NCI-H2405; first compound 6.325 µM
  relative viability: 0.974
NCI-H2405; first compound 20 µM
  relative viability: 0.0844
NCI-H838; first compound 0.2 µM
  relative viability: 0.247
NCI-H838; first compound 0.6325 µM
  relative viability: 0.249
NCI-H838; first compound 2 µM
  relative viability: 0.261
NCI-H838; first compound 6.325 µM
  relative viability: 0.264
NCI-H838; first compound 20 µM
  relative viability: 0.174
HCC-366; first compound 0.2 µM
  relative viability: 0.187
HCC-366; first compound 0.6325 µM
  relative viability: 0.203
HCC-366; first compound 2 µM
  relative viability: 0.156
HCC-366; first compound 6.325 µM
  relative viability: 0.184
HCC-366; first compound 20 µM
  relative viability: 0.0889
NCI-H1734; first compound 0.2 µM
  relative viability: 0.403
NCI-H1734; first compound 0.6325 µM
  relative viability: 0.416
NCI-H1734; first compound 2 µM
  relative viability: 0.433
NCI-H1734; first compound 6.325 µM
  relative viability: 0.407
NCI-H1734; first compound 20 µM
  relative viability: 0.0543
BEN; first compound 0.2 µM
  relative viability: 0.898
BEN; first compound 0.6325 µM
  relative viability: 0.421
BEN; first compound 6.325 µM
  relative viability: 0.801
BEN; first compound 20 µM
  relative viability: 0.834
HARA; first compound 0.2 µM
  relative viability: 0.278
HARA; first compound 0.6325 µM
  relative viability: 0.232
HARA; first compound 2 µM
  relative viability: 0.209
HARA; first compound 6.325 µM
  relative viability: 0.243
HARA; first compound 20 µM
  relative viability: 0.247
HCC-78; first compound 0.2 µM
  relative viability: 0.916
HCC-78; first compound 0.6325 µM
  relative viability: 0.886
HCC-78; first compound 2 µM
  relative viability: 0.914
HCC-78; first compound 6.325 µM
  relative viability: 0.832
HCC-78; first compound 20 µM
  relative viability: 0.864
HCC-44; first compound 0.2 µM
  relative viability: 0.748
HCC-44; first compound 0.6325 µM
  relative viability: 0.641
HCC-44; first compound 2 µM
  relative viability: 0.681
HCC-44; first compound 6.325 µM
  relative viability: 0.676
HCC-44; first compound 20 µM
  relative viability: 0.607
NCI-H441; first compound 0.2 µM
  relative viability: 0.24
NCI-H441; first compound 0.6325 µM
  relative viability: 0.2
NCI-H441; first compound 2 µM
  relative viability: 0.271
NCI-H441; first compound 6.325 µM
  relative viability: 0.274
NCI-H441; first compound 20 µM
  relative viability: 0.204

— the supplement of paper PMC10307832
